Data published in article PMC12518634, “The noncanonical function of liver-type phosphofructokinase potentiates the efficacy of HDAC inhibitors in cancer” (Signal Transduction and Targeted Therapy, 2025).

What was measured:
TFK1 cells [1] = assay: Cell viability assay (CellTiter-Glo, 72 h), GI50; format: cell-based, human; conditions: Homo sapiens
Method: (§1) Cell viability was assessed using the CellTiter-Glo luminescent cell viability assay (Vazyme, DD1101) following the manufacturer’s instructions. Briefly, 5000 cells per well were seeded into a 96-well white bottom permeable plate. Different concentrations of drugs were added to each well. After 72 h of treatment, a mixture of CellTier reagent and serum-free culture medium was prepared at a 1:1 ratio, and 100 μL of the mixture was added to each well. After incubation at 37 °C for 15 min, the luminescence was measured using a microplate reader (Synergy H1, Biotek). All the experiments were conducted in triplicate. Cell viability (relative luminescence) was defined as the luminescence of the drug treatment relative to that of the vehicle control.

RMG-I cells = assay: Cell viability assay (CellTiter-Glo, 72 h), GI50; format: cell-based; conditions: Homo sapiens
Method: as §1

NCI-H596 cells = assay: Cell viability assay (CellTiter-Glo, 72 h), GI50; format: cell-based; conditions: Homo sapiens, Fig. 6a
Method: as §1

TOV21G cells = assay: Cell viability assay (CellTiter-Glo, 72 h), GI50; format: cell-based; conditions: Homo sapiens, Fig. 6a
Method: as §1

A549 cells = assay: Cell viability assay (CellTiter-Glo, 72 h), GI50; format: cell-based; conditions: Homo sapiens, A549, 72 h
Method: as §1

BT-549 cells = assay: Cell viability assay (CellTiter-Glo, 72 h), GI50; format: cell-based; conditions: Homo sapiens, BT-549, 72 h
Method: as §1

MCF7 cells = assay: Cell viability assay (CellTiter-Glo, 72 h), GI50; format: cell-based; conditions: Homo sapiens, Fig. 6a
Method: as §1

[2] = tested on: H3K9ac and H3K27ac in TFK1 cells; assay: Immunoblot of H3K9ac and H3K27ac; format: cell-based, human; conditions: prolonged romidepsin treatment, n = 3 biological replicates, Fig. 3f
Method: For immunoblotting, cells were washed with ice-cold PBS and lysed in RIPA lysis buffer (supplemented with protease inhibitor and phosphatase inhibitor cocktails Ⅱ and Ⅲ) for 15 min at 4 °C. The protein concentrations of the samples were normalized using a BCA protein assay kit (Thermo). Immunoblots were performed with specific primary antibodies, followed by the addition of a fluorescein-conjugated secondary antibody, after which the proteins were detected via an Odyssey fluorescence scanner (LI-COR).

TFK1 cells [3] = conditions: PFKL-knockout (sgPFKL) TFK1 cells and PFKL-overexpressing (ovPFKL) HuCCT1 cells; LC-MS/MS of cell lysates; n=3 biological replicates; Supplementary Fig. 5f
[4] = romidepsin combined with NS or peptide, Fig. 6c

Structure (SMILES): Cc1[nH]c2ccccc2c1CCNCc1ccc(/C=C/C(=O)NO)cc1 [Panobinostat, panobinostat]
- GI50 (TFK1 cells [1]; TFK1, CellTiter-Glo, Fig. 1b): 62.7 nM
- GI50 (TFK1 cells [1]; TFK1 after interference with LHCGR si-1, Fig. 1f): 31 nM
- GI50 (TFK1 cells [1]; TFK1 after interference with LHCGR si-2, Fig. 1f): 28.3 nM
- GI50 (TFK1 cells [1]; TFK1 after interference with NFIA si-1, Fig. 1f): 42.7 nM
- GI50 (TFK1 cells [1]; TFK1 after interference with NFIA si-2, Fig. 1f): 46.6 nM
- GI50 (TFK1 cells [1]; TFK1 after interference with PFKFB1 si-1, Fig. 1f): 45.1 nM
- GI50 (TFK1 cells [1]; TFK1 after interference with PFKFB1 si-2, Fig. 1f): 60.6 nM
- GI50 (TFK1 cells [1]; TFK1 after interference with PFKL si-1, Fig. 1f): 605 nM
- GI50 (TFK1 cells [1]; TFK1 after interference with PFKL si-2, Fig. 1f): 402 nM
- GI50 (TFK1 cells [1]; TFK1 expressing sgNC, Fig. 1g): 53.9 nM
- GI50 (TFK1 cells [1]; TFK1 expressing sgPFKL-1, Fig. 1g): 964 nM
- GI50 (TFK1 cells [1]; TFK1 expressing sgPFKL-2, Fig. 1g): 644 nM
- GI50 (TFK1 cells [1]; TFK1 siNC, Fig. 1f): 40.1 nM

Structure (SMILES): C/C=C1\NC(=O)[C@H]2CSSCC/C=C/[C@H](CC(=O)N[C@H](C(C)C)C(=O)N2)OC(=O)[C@H](C(C)C)NC1=O [Romidepsin, romidepsin]
- GI50 (RMG-I cells; Fig. 6a): 5.71 nM
- GI50 (RMG-I cells; [4]): 9.48 nM
- GI50 (NCI-H596 cells): 0.12 nM
- GI50 (TOV21G cells): 0.36 nM
- GI50 (A549 cells; Fig. 6a): 5.87 nM
- GI50 (A549 cells; [4]): 7.62 nM
- GI50 (BT-549 cells; BT549, romidepsin combined with NS or peptide, Fig. 6c): 16.2 nM
- GI50 (BT-549 cells; BT-549, Fig. 6a): 13.7 nM
- GI50 (MCF7 cells): 0.56 nM
- acetylation at the H3K9 and K27 histone sites [2]: gradual increase in acetylation
- cellular uptake of romidepsin with differential expression of PFKL (TFK1 cells [3]): did not affect the cellular uptake
